The record followed here is patent publication US8518383B2, “Oral care products comprising buffer systems for improved mineralization/remineralization benefits” (Wm. Wrigley Jr. Company, priority 2006, dated 2013).

The assay can be described thus: in-vitro pH cycling model, enamel microhardness (remineralization efficacy). Also noted: species or system human. The protocol: The purpose of this test was to evaluate in-vitro efficacy of soluble calcium and phosphate combinations. Testing was conducted at the University of Indiana. Enamel specimens (3×3×3 mm diameter window) were removed from extracted human teeth and mounted on acrylic rods. The enamel surface was ground and polished using alumina slurry, rinsed with deionized water, and air dried. Artificial lesions were then formed in the enamel specimens by a 96 hr immersion in a partially saturated HAP acid buffer consisting of 0.1 mM lactic acid and 0.2 wt % Carbopol C907 adjusted to a pH of 5. Four baseline indentations per specimen were placed with a Vickers diamond at a 200 g load for 15 seconds and the indentation lengths had to be in a range from 25-45 microns. Enamel specimens (N=18 per treatment) were then cycled daily through a series of solutions repeated over an 8 day time period. Artificial saliva, acid challenge and pooled whole saliva solutions were prepared fresh daily. After treatment, the enamel microhardness was assessed and the difference between initial and final microhardness was calculated as a measure of remineralization efficacy. The data was then statistically analyzed with overall treatment comparisons calculated using an ANOVA model at α=0.05. Post ANOVA pairwise comparisons were made using a 2 tailed student t-test.
Artificial saliva with active treatments (1 hr, 4× daily)
Saliva treatment (0.05 ppm fluoride, 30 min daily)
Acid challenge (partially saturated HAP acid/carbopol buffer, Ph 5.0, 20 min., 3× daily)
Saliva film in a humid environment (overnight)
Comparison of Ca-citrate and Ca-citrate+Phosphate blend vs. Ca-lactate (see FIG. 1)

With `CC(O)C(=O)[O-].CC(O)C(=O)[O-].[Ca+2]` (stereo not drawn) [Ca-lactate], the “dose response of enamel rehardening” value (500 and 1500 ppm) was “No significant dose response”. On to `O=C([O-])CC(O)(CC(=O)[O-])C(=O)[O-].O=C([O-])CC(O)(CC(=O)[O-])C(=O)[O-].[Ca+2].[Ca+2].[Ca+2]` [CaCit (811), Ca Citrate], for which the “ΔVSMH (difference between initial and final enamel microhardness)” value is, setting by setting: (Ca 811 ppm (0.38% salt) in artificial saliva, 1 hr 4x daily, 8 day pH cycling, mean, N=18) 29.65; (Ca 811 ppm (0.38% salt) in artificial saliva; 1 hr 4x daily, 8 day pH cycling; mean, N=18; 0.38%)) 29.55. Moreover, for the setting “pairwise comparison of treatment groups, see value”, the “enamel rehardening, comparison in words” value is recorded as “higher enamel rehardening over Ca-lactate”. Consider `CC(O)C(=O)[O-].CC(O)C(=O)[O-].O.O.O.O.O.[Ca+2]` (stereo not drawn) [CaLac (500), Ca Lactate 5-hydrate], for which the “ΔVSMH (difference between initial and final enamel microhardness)” value (Ca 500 ppm in artificial saliva, 1 hr 4x daily, 8 day pH cycling, mean, N=18) worked out at 4.78.

As to `CC(O)C(=O)[O-].CC(O)C(=O)[O-].O.O.O.O.O.[Ca+2]` (stereo not drawn) [CaLac (1500), Ca Lactate 5-hydrate], under “Ca 1500 ppm in artificial saliva, 1 hr 4x daily, 8 day pH cycling, mean, N=18”, the “ΔVSMH (difference between initial and final enamel microhardness)” value was 5.99.
